Assay results reported in PubChem BioAssay AID652053 (Broad Institute, 2013).

System: Huh7 psiCHECK-miR122 Renilla luciferase reporter, 48 h
Test: suppression of miR-122 activity, Renilla luciferase sensor – cell-based, Huh7 psiCHECK-miR122, cherry-pick, dose response (AID 652053)

| Structure (SMILES) | AC40 [µM] |
| --- | --- |
| COc1cccc(C(O)c2ncc(-c3cccc(F)c3)[nH]2)c1 (stereo not given) | 17.3 |
| Cc1ccc(-c2ccc3c(c2)O[C@H](CN(C)Cc2ccc(F)cc2)[C@@H](C)CN([C@H](C)CO)S3(=O)=O)cc1 | 5.46 |
| COc1ccc(S(=O)(=O)Nc2ccc3c(c2)CC(=O)N([C@H](C)CO)C[C@H](C)[C@H](CN(C)Cc2ccc(C(=O)Nc4ccccc4N)cc2)O3)cc1 | 10.5 |
| Cc1cc(S(=O)(=O)N(Cc2ccccc2F)C2CC2)ccc1-n1cnnn1 | 1.94 |
| CC(C)(C)NS(=O)(=O)c1ccc2[nH]c3c(c2c1)CCCCC3 | 5.04 |
| Cc1ccc(NS(=O)(=O)c2cc(OCC(N)=O)c(C)cc2Cl)cc1C | 7.14 |
| COc1ccccc1CNS(=O)(=O)c1cc(-c2cc(C)no2)ccc1C(C)C | 4.78 |
| CN1c2ccc(-c3ccccc3)cc2[C@H]2[C@H](CCN2S(=O)(=O)c2ccccc2F)[C@H]1CO | 3.63 |
| COc1ccc(NS(=O)(=O)c2cc(NS(=O)(=O)c3cccs3)ccc2C)cc1 | 4.04 |
| COc1ccc(-c2cc(C(=O)N(C)Cc3ccccc3F)c3ccccc3n2)cc1OC | 14.7 |
| C[C@@H]1CN([C@H](C)CO)C(=O)c2cccc(NC(=O)C3CCCCC3)c2O[C@@H]1CN(C)Cc1ccc(C(=O)Nc2ccccc2N)cc1 | 6.1 |
| CC(C)(C)C(=O)Nc1cc(S(=O)(=O)Nc2ccc(Cl)cc2)ccc1O | 13.8 |
| C[C@H](CO)N1C[C@H](C)[C@@H](CN(C)Cc2ccccc2)Oc2c(NC(=O)C3CC3)cccc2C1=O | 6.79 |
| COc1ccc(Cl)cc1S(=O)(=O)NCc1cccnc1 | 14.5 |
| O=C(NCc1ccncc1)c1cccc(S(=O)(=O)Nc2ccc(F)cc2)c1 | 3.23 |
| CCc1cccc(NS(=O)(=O)c2ccc3c(c2)NC(=O)CO3)c1 | 7 |
| O=C(COc1ccc(S(=O)(=O)NC2CCCCC2)cc1)NC1CCCC1 | 8.46 |
| Cc1ccc(-c2cnc3c(c2)C(=O)N([C@H](C)CO)C[C@@H](C)[C@H](CN(C)Cc2ccccc2F)O3)cc1 | 2.64 |
| FC(F)(F)c1cccc(NC(=S)NCCc2ccccn2)c1 | 2.88 |
| CC(C)C(=O)Nc1ccc2c(c1)C(=O)N(C)[C@H]1CC[C@H](CC(=O)NCc3cccc(F)c3)O[C@H]1CO2 | 17.7 |
| COc1ccccc1NS(=O)(=O)c1cc(NC(=O)Nc2ccccc2)ccc1N1CCCCC1 | 1.37 |
| OC(c1ccc(Cl)c(F)c1)c1ncc(-c2ccccc2F)[nH]1 (stereo not given) | 2.04 |
| CCc1c(C(=O)NCc2ccccc2Cl)[nH]c(C)c1C(C)=O | 1.38 |
| COc1ccccc1NS(=O)(=O)c1cc(NC(=O)Nc2ccc(Cl)cc2Cl)ccc1N1CCCCC1 | 1.49 |
| C[C@@H]1CN([C@H](C)CO)C(=O)c2cc(N(C)C)ccc2O[C@H]1CN(C)Cc1ccc(C(=O)Nc2ccccc2N)cc1 | 1.96 |

| Structure (SMILES) | AC40 [µM] |
| --- | --- |
| COc1cc(C)c(S(=O)(=O)Nc2ccccc2F)cc1C | 3.14 |
| COc1ccc(C)cc1S(=O)(=O)Nc1cc2c3c(c1)CCC(=O)N3CCC2 | 1.86 |
| Cc1ccc(NS(=O)(=O)c2cc(C(=O)N3CCN(C)CC3)ccc2C)cc1C | 25.1 |
| C[C@@H]1CN([C@H](C)CO)C(=O)c2cc(NC(=O)Cc3ccccc3)ccc2O[C@@H]1CN(C)S(=O)(=O)c1ccc(Cl)cc1 | 1.31 |
| C[C@@H]1CN([C@@H](C)CO)C(=O)c2cccc(NC(=O)C3CC3)c2O[C@@H]1CN(C)Cc1ccc(C(=O)Nc2ccccc2N)cc1 | 3.72 |
| COc1ccc(N(C(=O)c2ccncc2)S(=O)(=O)c2ccc3c4c(cccc24)C(=O)N3C)cc1 | 7.01 |
| COc1ccccc1CNS(=O)(=O)c1ccc(-c2cc(C)no2)cc1 | 10.8 |
| CSc1ccc(S(=O)(=O)NC2CC3CCC2C3)cc1 (stereo not given) | 5.6 |
| O=S(=O)(Nc1ccc(S(=O)(=O)N2CCCC2)cc1)c1ccccc1Br | 4.34 |
| Cc1ccc(SCCNC(=O)c2ccc(C)c(S(=O)(=O)Nc3cccc(C)c3)c2)cc1 | 3.74 |
| COc1ccc(-c2ccc3c(c2)CN(C(=S)NCCc2ccccc2)Cc2cnnn2-3)cc1 | 2.2 |
| COc1ccc(NS(=O)(=O)c2cc(OC)ccc2OC)cc1 | 5.31 |
| COc1cccc(N2CCN(C(=O)c3oc4ccccc4c3NC(=O)Cc3ccc(OC)c(OC)c3)CC2)c1 | 1.62 |
| Cc1csc2c(=O)sc(NC(=O)c3ccco3)nc12 | 14.5 |
| O=C(Cc1ccccc1)N1C[C@@H]2[C@H](c3ccccc31)[C@@H](CO)N2C(=O)Nc1ccc(F)cc1 | 2.61 |
| Cc1ccccc1CC1(C)C(=O)Nc2ccc(S(=O)(=O)NC3CCCCC3)cc21 (stereo not given) | 2.69 |
| Cc1ccc(NC(=O)CNC(=O)c2cccs2)cc1S(=O)(=O)Nc1ccc(Cl)cc1 | 3.31 |
| CC(C)CC(=O)Nc1cccc(-c2nc3ccccc3[nH]2)c1 | 15.6 |
| O=C(NCCCn1ccnc1)c1cccc(S(=O)(=O)Nc2ccc(F)cc2)c1 | 3.77 |
| COc1ccc(C)cc1S(=O)(=O)NC1CCCCCC1 | 2.03 |
| Cc1cc(C(O)c2ncc(-c3ccccc3)[nH]2)ccc1F (stereo not given) | 19.2 |
| Cc1ccccc1C(=O)Oc1ccc(Br)cc1C(=S)N1CCCC1 | 13.3 |
| O=S(=O)(Nc1ccc(N2CCOCC2)cc1)c1cc(Cl)ccc1Cl | 26.6 |
| CCCCOCCCNC(=S)Nc1ccc(S(=O)(=O)N2CCOCC2)cc1 | 11 |
| COc1ccc(N2CCN(C(=O)c3csc4ccccc34)CC2)cc1 | 15.9 |
